{
  "source": "PubChem BioAssay (NCI)",
  "assay_in_all_cases": "NCI anticancer screen, dose series, 48 h",
  "key": {"HOP-62 NSCLC": {"tested_on": "HOP-62 NSCLC"}, "UO-31 renal": {"tested_on": "UO-31 renal"}, "SW-620 colon": {"tested_on": "SW-620 colon"}, "SR leukemia": {"tested_on": "SR leukemia"}, "CAKI-1 renal": {"tested_on": "CAKI-1 renal"}, "OVCAR-3 ovarian": {"tested_on": "OVCAR-3 ovarian"}, "MDA-MB-435": {"tested_on": "MDA-MB-435"}, "MDA-N": {"tested_on": "MDA-N"}, "MCF7 breast": {"tested_on": "MCF7 breast"}, "MOLT-4 leukemia": {"tested_on": "MOLT-4 leukemia"}},
  "note": "Several values for one entry are separate records, joined by “and”; a condition that tells them apart may be missing. Equal values may be shown once.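 48-hour exposure; five concentrations; linearly interpolated endpoints. At the GI50, growth is halved. TGI: concentration producing complete growth inhibition.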 Where a SMILES comes first, the peptide text is derived from it. [ ]: non-standard residue; d: D form. The star is where a group is joined. ξ: configuration not given here. X16 = COC1=CC(=O)N(C(=O)C(O*)C(C)C)C1Cc1ccccc1; ξNMe2Val = CC(C)C(C(=O)*)N(C)C; NMeV = CN[CH](C(=O)O)C(C)C",
  "data": [
    {"smiles": "OCC(O)COc1ccc(Br)cc1", "note": "(stereo unspecified)", "values": [
      {"measurement": "TGI", "setting": "HOP-62 NSCLC", "result": "> 100", "unit": "µM"},
      {"measurement": "TGI", "setting": "UO-31 renal", "result": "> 100", "unit": "µM"},
      {"measurement": "TGI", "setting": "SW-620 colon", "result": "> 100", "unit": "µM"},
      {"measurement": "TGI", "setting": "SR leukemia", "result": "> 100", "unit": "µM"},
      {"measurement": "TGI", "setting": "CAKI-1 renal", "result": "> 100", "unit": "µM"},
      {"measurement": "TGI", "setting": "OVCAR-3 ovarian", "result": "> 100", "unit": "µM"}
    ]},
    {"smiles": "Cc1ccc(N=Nc2c(O)c3ccccc3[nH]c2=O)c(S(=O)(=O)N(C)C)c1", "values": [
      {"measurement": "TGI", "setting": "HOP-62 NSCLC", "result": "> 100", "unit": "µM"},
      {"measurement": "TGI", "setting": "UO-31 renal", "result": "> 100", "unit": "µM"},
      {"measurement": "TGI", "setting": "SW-620 colon", "result": "> 100", "unit": "µM"},
      {"measurement": "TGI", "setting": "CAKI-1 renal", "result": "> 100", "unit": "µM"},
      {"measurement": "TGI", "setting": "MDA-MB-435", "result": "> 100", "unit": "µM"},
      {"measurement": "TGI", "setting": "MDA-N", "result": "> 100", "unit": "µM"},
      {"measurement": "TGI", "setting": "OVCAR-3 ovarian", "result": "> 100", "unit": "µM"},
      {"measurement": "TGI", "setting": "MCF7 breast", "result": "> 100", "unit": "µM"}
    ]},
    {"smiles": "N/C(CC/C(N)=N\\O)=N\\O", "values": [
      {"measurement": "TGI", "setting": "HOP-62 NSCLC", "result": "> 100", "unit": "µM"},
      {"measurement": "TGI", "setting": "MOLT-4 leukemia", "result": "> 100", "unit": "µM"},
      {"measurement": "TGI", "setting": "UO-31 renal", "result": "> 100", "unit": "µM"},
      {"measurement": "TGI", "setting": "SW-620 colon", "result": "> 100", "unit": "µM"},
      {"measurement": "TGI", "setting": "SR leukemia", "result": "> 100", "unit": "µM"},
      {"measurement": "TGI", "setting": "CAKI-1 renal", "result": "> 100", "unit": "µM"},
      {"measurement": "TGI", "setting": "MDA-MB-435", "result": "> 100", "unit": "µM"},
      {"measurement": "TGI", "setting": "MDA-N", "result": "> 100", "unit": "µM"},
      {"measurement": "TGI", "setting": "OVCAR-3 ovarian", "result": "> 100", "unit": "µM"}
    ]},
    {"smiles": "COC1=CC(=O)N(C(=O)C(OC(=O)C2CCCN2C(=O)C2CCCN2C(=O)C(C(C)C)N(C)C(=O)C(NC(=O)C(C(C)C)N(C)C)C(C)C)C(C)C)C1Cc1ccccc1", "note": "(stereo unspecified) (ξNMe2Val-V[NMeV]PP-X16; configuration not given here)", "values": [
      {"measurement": "GI50", "setting": "HOP-62 NSCLC", "result": 2.41, "unit": "nM"},
      {"measurement": "TGI", "setting": "HOP-62 NSCLC", "result": "> 4", "unit": "µM"},
      {"measurement": "GI50", "setting": "MOLT-4 leukemia", "result": "< 0.4", "unit": "nM"},
      {"measurement": "GI50", "setting": "UO-31 renal", "result": "> 4", "unit": "µM"},
      {"measurement": "TGI", "setting": "UO-31 renal", "result": "> 4", "unit": "µM"},
      {"measurement": "GI50", "setting": "SW-620 colon", "result": "< 0.4", "unit": "nM"},
      {"measurement": "TGI", "setting": "SW-620 colon", "result": "> 4", "unit": "µM"},
      {"measurement": "GI50", "setting": "CAKI-1 renal", "result": "< 0.4", "unit": "nM"},
      {"measurement": "TGI", "setting": "CAKI-1 renal", "result": "> 4", "unit": "µM"},
      {"measurement": "TGI", "setting": "MDA-MB-435", "result": 0.000576, "unit": "µM"},
      {"measurement": "TGI", "setting": "MDA-N", "result": 0.000275, "unit": "µM"},
      {"measurement": "GI50", "setting": "OVCAR-3 ovarian", "result": "< 0.4", "unit": "nM"},
      {"measurement": "TGI", "setting": "OVCAR-3 ovarian", "result": "0.00383 µM and < 0.0004 µM"},
      {"measurement": "GI50", "setting": "MCF7 breast", "result": "< 0.4", "unit": "nM"},
      {"measurement": "TGI", "setting": "MCF7 breast", "result": "> 4", "unit": "µM"}
    ]},
    {"smiles": "COc1ccc(-n2c(CCCC(=O)O)nc3c2C(=O)c2ccccc2C3=O)cc1", "values": [
      {"measurement": "TGI", "setting": "MOLT-4 leukemia", "result": "> 100", "unit": "µM"},
      {"measurement": "TGI", "setting": "UO-31 renal", "result": "> 100", "unit": "µM"},
      {"measurement": "TGI", "setting": "SW-620 colon", "result": "> 100", "unit": "µM"},
      {"measurement": "TGI", "setting": "SR leukemia", "result": "> 100", "unit": "µM"},
      {"measurement": "TGI", "setting": "CAKI-1 renal", "result": "> 100", "unit": "µM"},
      {"measurement": "TGI", "setting": "MDA-MB-435", "result": 78.9, "unit": "µM"},
      {"measurement": "TGI", "setting": "MDA-N", "result": "> 100", "unit": "µM"},
      {"measurement": "TGI", "setting": "OVCAR-3 ovarian", "result": 92.9, "unit": "µM"},
      {"measurement": "TGI", "setting": "MCF7 breast", "result": "> 100", "unit": "µM"}
    ]},
    {"smiles": "COC(=O)OC[C@H]1O[C@@H](n2cc(C)c(=O)[nH]c2=O)CC1OC(=O)OC", "note": "(stereo partly specified)", "values": [
      {"measurement": "TGI", "setting": "HOP-62 NSCLC", "result": "> 100", "unit": "µM"},
      {"measurement": "TGI", "setting": "MOLT-4 leukemia", "result": "> 100", "unit": "µM"},
      {"measurement": "TGI", "setting": "UO-31 renal", "result": "> 100", "unit": "µM"},
      {"measurement": "TGI", "setting": "SW-620 colon", "result": "> 100", "unit": "µM"},
      {"measurement": "TGI", "setting": "SR leukemia", "result": "> 100", "unit": "µM"},
      {"measurement": "TGI", "setting": "MDA-MB-435", "result": "> 100", "unit": "µM"},
      {"measurement": "TGI", "setting": "MDA-N", "result": "> 100", "unit": "µM"},
      {"measurement": "TGI", "setting": "OVCAR-3 ovarian", "result": "> 100", "unit": "µM"},
      {"measurement": "TGI", "setting": "MCF7 breast", "result": "> 100", "unit": "µM"}
    ]},
    {"smiles": "C/C(=N\\Nc1nc2cc(C)ccc2s1)c1ccccn1", "values": [
      {"measurement": "TGI", "setting": "HOP-62 NSCLC", "result": 3.62, "unit": "µM"},
      {"measurement": "TGI", "setting": "UO-31 renal", "result": 11.1, "unit": "µM"},
      {"measurement": "TGI", "setting": "SW-620 colon", "result": "> 20.2", "unit": "µM"},
      {"measurement": "TGI", "setting": "SR leukemia", "result": "> 21.8", "unit": "µM"},
      {"measurement": "TGI", "setting": "CAKI-1 renal", "result": 9.18, "unit": "µM"},
      {"measurement": "TGI", "setting": "MDA-MB-435", "result": "> 64.5", "unit": "µM"},
      {"measurement": "TGI", "setting": "MDA-N", "result": "> 100", "unit": "µM"}
    ]},
    {"smiles": "Oc1c(Cl)c2nccnc2c2ccccc12", "values": [
      {"measurement": "TGI", "setting": "MOLT-4 leukemia", "result": "> 100", "unit": "µM"},
      {"measurement": "TGI", "setting": "UO-31 renal", "result": "> 100", "unit": "µM"},
      {"measurement": "TGI", "setting": "SW-620 colon", "result": "> 100", "unit": "µM"},
      {"measurement": "TGI", "setting": "OVCAR-3 ovarian", "result": "> 100", "unit": "µM"}
    ]},
    {"smiles": "CC12CC3c4ccccc4CN1C3(c1ccccc1)OC2=O", "note": "(stereo unspecified)", "values": [
      {"measurement": "TGI", "setting": "HOP-62 NSCLC", "result": "> 100", "unit": "µM"},
      {"measurement": "TGI", "setting": "MOLT-4 leukemia", "result": "> 100", "unit": "µM"},
      {"measurement": "TGI", "setting": "UO-31 renal", "result": "> 100", "unit": "µM"},
      {"measurement": "TGI", "setting": "SW-620 colon", "result": "> 100", "unit": "µM"},
      {"measurement": "TGI", "setting": "CAKI-1 renal", "result": "> 100", "unit": "µM"},
      {"measurement": "TGI", "setting": "MDA-MB-435", "result": "> 100", "unit": "µM"}
    ]},
    {"smiles": "CN(C)CC1CCC/C(=C\\c2ccc(N(C)C)cc2)C1=O", "note": "(stereo unspecified)", "values": [
      {"measurement": "TGI", "setting": "HOP-62 NSCLC", "result": 33, "unit": "µM"},
      {"measurement": "TGI", "setting": "MOLT-4 leukemia", "result": "> 100", "unit": "µM"},
      {"measurement": "TGI", "setting": "UO-31 renal", "result": 22.2, "unit": "µM"},
      {"measurement": "TGI", "setting": "SW-620 colon", "result": 3.29, "unit": "µM"},
      {"measurement": "TGI", "setting": "CAKI-1 renal", "result": 3.3, "unit": "µM"},
      {"measurement": "TGI", "setting": "MDA-MB-435", "result": 17.4, "unit": "µM"},
      {"measurement": "TGI", "setting": "MDA-N", "result": 19.6, "unit": "µM"},
      {"measurement": "TGI", "setting": "OVCAR-3 ovarian", "result": 9.36, "unit": "µM"},
      {"measurement": "TGI", "setting": "MCF7 breast", "result": 2.82, "unit": "µM"}
    ]},
    {"smiles": "CC1(C)CCc2c(cc3c(c2O)CCC(C)(C)O3)O1", "values": [
      {"measurement": "TGI", "setting": "HOP-62 NSCLC", "result": "> 100", "unit": "µM"},
      {"measurement": "TGI", "setting": "MOLT-4 leukemia", "result": "> 100", "unit": "µM"},
      {"measurement": "TGI", "setting": "UO-31 renal", "result": "> 100", "unit": "µM"},
      {"measurement": "TGI", "setting": "SW-620 colon", "result": "> 100", "unit": "µM"},
      {"measurement": "TGI", "setting": "SR leukemia", "result": "> 100", "unit": "µM"},
      {"measurement": "TGI", "setting": "CAKI-1 renal", "result": "> 100", "unit": "µM"},
      {"measurement": "TGI", "setting": "MDA-N", "result": "> 100", "unit": "µM"},
      {"measurement": "TGI", "setting": "OVCAR-3 ovarian", "result": "> 100", "unit": "µM"},
      {"measurement": "TGI", "setting": "MCF7 breast", "result": "> 100", "unit": "µM"}
    ]}
  ]
}
